“And” between values parts separate entries of the source, which are not always exact repeats. Equal values may be shown once. Where a SMILES comes first, the peptide text is derived from it. [ ]: non-standard residue; d: D form. The star is where a group is joined. αMeW = C[C@](N)(Cc1c[nH]c2ccccc12)C(=O)O; Acetyl(2-thienyl) = O=C(Cc1cccs1)*
Tests used:
NMU2 A302H = target: T1, NMU2 A302H (Homo sapiens, UniProt Q9GZQ4, A302H); assay: TRUPATH assay, NMU2 mutant A302H; format: cell-based; settings: Log [CPN 267] M -13
T1 construct: HA signal peptide (N); expressed in transfected cells; host or cells: HEK 293F
Protocol: (§1) The plasmids of Gαi1, Gβ3, and Gγ9 used for the TRUPATH assay were purchased from Addgene (TRUPATH Kit, #1000000163). NMU2 constructs of WT and mutants were constructed into a PTT5 vector (Invitrogen) with an N-terminal HA signal peptide followed by a Flag tag. HEK 293F cells were transiently transfected with WT or mutants of NMU2, Gαi1, Gβ3, and Gγ9 at an […] ratio of 4:1:1:1 with a total of 3500 ng plasmid DNA using a transfection reagent (PEI MAX 2000, Polysciences) and cultivated at 37 °C with 5 % CO2. Cells were collected after 48-h transfection. The expression level of the receptor was measured by incubating 10 μl cells with 15 μl TBS buffer supplemented with 4% bovine serum albumin, 20% (v/v) viability staining solution7-AAD (Invitrogen, Cat#00-6993-50), and ANTI-FLAG M2-FITC antibody (Sigma, F4049; 1:100 diluted by TBS) at 4 °C for 20 min. After incubation, 175 μl TBS buffer was added, and the fluorescence signal on the cell surface was detected by an FCM (flow cytometry) reader (Millipore). The cells were diluted with 1× HBSS (Hank’s balanced salt solution) balanced buffer supplemented with 25 mM HEPES, pH 7.4, and seeded onto the 96-well opaque cell culture plates (Beyotime) at a density of 18,000 cells per well by 60 μl. Freshly prepared 50 μM coelenterazine 400a (Nanolight Technologies) was added into the well by 10 μl. After a 5 min equilibration time in the darkness, plates were then read in a Synerg^TM H1 microplate reader (BioTek) with excitation at 395 nm and emission at 410 and 515 nm by serially three times. Then, 30 μl of 3.3× agonists were added into the wells with a gradient final concentration from 10^−4–10^−13 M. Plates were read immediately again by serially five times. Data were processed and analyzed following the method in the literature by using GraphPad Prism 8.0.

NMU2 = target: T2, NMU2 (Homo sapiens, UniProt Q9GZQ4); assay: TRUPATH Gαi1βγ biosensor assay, WT NMU2; format: cell-based; settings: WT; for CPN 267–induced G protein activation of NMU2: single replicates
T2 construct: HA signal peptide (N); expressed in transfected cells; host or cells: HEK 293F
Protocol: as §1

NMU1 = system: NMU1; parameters: method as in PMID 24999562, PMID 25815150, PMID 28548497; settings: cited from earlier work
NMU2 H43E = target: T3, NMU2 H43E (Homo sapiens, UniProt Q9GZQ4, H43E); assay: TRUPATH assay, NMU2 mutant H43E; format: cell-based; settings: for increase of Emax: H43E vs WT, TRUPATH; for CPN 267–induced G protein activation of NMU2: single replicates
T3 construct: HA signal peptide (N); expressed in transfected cells; host or cells: HEK 293F
Protocol: as §1

NMU2 N306Q = target: T4, NMU2 N306Q (Homo sapiens, UniProt Q9GZQ4, N306Q); assay: TRUPATH assay, NMU2 mutant N306Q; format: cell-based
T4 construct: HA signal peptide (N); expressed in transfected cells; host or cells: HEK 293F
Protocol: as §1

T2 sequence (Q9GZQ4 whole entry): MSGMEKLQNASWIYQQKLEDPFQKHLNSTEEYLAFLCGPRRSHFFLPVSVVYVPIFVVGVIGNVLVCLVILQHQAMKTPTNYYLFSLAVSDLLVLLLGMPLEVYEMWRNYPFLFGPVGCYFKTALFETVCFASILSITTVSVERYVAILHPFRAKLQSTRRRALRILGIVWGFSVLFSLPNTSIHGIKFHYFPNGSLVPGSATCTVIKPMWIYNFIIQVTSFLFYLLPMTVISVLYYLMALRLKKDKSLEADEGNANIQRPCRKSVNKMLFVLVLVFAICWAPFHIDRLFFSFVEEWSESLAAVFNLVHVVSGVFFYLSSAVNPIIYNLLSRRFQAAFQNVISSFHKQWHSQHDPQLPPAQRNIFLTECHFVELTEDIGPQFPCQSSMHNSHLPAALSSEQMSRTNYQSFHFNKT
T4 sequence (Q9GZQ4 whole entry N306Q): as the sequence (Q9GZQ4 whole entry) above, with N306Q counted along it
T3 sequence (Q9GZQ4 whole entry H43E): as the sequence (Q9GZQ4 whole entry) above, with H43E counted along it
T1 sequence (Q9GZQ4 whole entry A302H): as the sequence (Q9GZQ4 whole entry) above, with A302H counted along it

CPN 267 dose-response point on NMU2 (TRUPATH, raw signal) (NMU2 A302H): 0
EC50 ratio EC50(mutant)/EC50(WT) (NMU2): 1
CPN 267 dose-response point on NMU2 (TRUPATH, raw signal) (NMU2; Log [CPN 267] M -13): 0
CPN 267–induced G protein activation of NMU2 (NMU2; Log [CPN 267] M -13): 0
EC50 ratio EC50(mutant)/EC50(WT) (NMU2 H43E; H43E): 2
increase of Emax (NMU2 H43E): twofold
increase of Emax (NMU2 H43E; listed as CPN267): 2 fold
CPN 267 dose-response point on NMU2 (TRUPATH, raw signal) (NMU2 H43E; H43E, Log [CPN 267] M -4): -0.04819
CPN 267–induced G protein activation of NMU2 (NMU2 H43E; H43E, Log [CPN 267] M -4): -0.04819
CPN 267–induced G protein activation of NMU2 (NMU2 H43E; H43E, Log [CPN 267] M -5): -0.05461 and -0.04902
CPN 267–induced G protein activation of NMU2 (NMU2 H43E; H43E, Log [CPN 267] M -6): -0.04442 and -0.04638 and -0.03015
CPN 267–induced G protein activation of NMU2 (NMU2 H43E; H43E, Log [CPN 267] M -7): -0.01102 and -0.01529 and -0.01284
CPN 267–induced G protein activation of NMU2 (NMU2 H43E; H43E, Log [CPN 267] M -8): 0.004556 and -0.024 and -0.02479
CPN 267–induced G protein activation of NMU2 (NMU2 H43E; H43E, Log [CPN 267] M -9): 0.01023 and -0.003075 and 0.003569
CPN 267–induced G protein activation of NMU2 (NMU2 H43E; H43E, Log [CPN 267] M -10): 0.0005609 and -0.01099 and -0.03027
CPN 267–induced G protein activation of NMU2 (NMU2 H43E; H43E, Log [CPN 267] M -11): 0.0192 and 0.004402 and 0
CPN 267–induced G protein activation of NMU2 (NMU2 H43E; H43E, Log [CPN 267] M -12): 0.009217 and 0
CPN 267 dose-response point on NMU2 (TRUPATH, raw signal) (NMU2 H43E; H43E, Log [CPN 267] M -13): 0
CPN 267–induced G protein activation of NMU2 (NMU2 H43E; H43E, Log [CPN 267] M -13): 0
EC50 ratio EC50(mutant)/EC50(WT) (NMU2 N306Q): 0.12
CPN 267–induced G protein activation of NMU2 (NMU2 N306Q; Log [CPN 267] M -4, single replicates): -0.07238 and -0.04006 and -0.03184
CPN 267–induced G protein activation of NMU2 (NMU2 N306Q; Log [CPN 267] M -6, single replicates): -0.04834 and -0.04745
CPN 267 dose-response point on NMU2 (TRUPATH, raw signal) (NMU2 N306Q; Log [CPN 267] M -13): 0
enhanced potency compared to the WT receptor (NMU2 N306Q; TRUPATH): about 8 fold
Structure (SMILES): C[C@@](Cc1c[nH]c2ccccc12)(NC(=O)[C@H](Cc1c[nH]c2ccccc12)NC(=O)Cc1cccs1)C(=O)N[C@@H](CCCNC(=N)N)C(=O)N1CCC[C@H]1C(=O)N[C@@H](CCCNC(=N)N)C(=O)N[C@@H](CC(N)=O)C(N)=O [CPN 267] ({Acetyl(2-thienyl)}-W[αMeW]RPRN-NH2; N-terminus assumed)
CPN 267–induced G protein activation of NMU2 (NMU2; Log [CPN 267] M -5): -0.03587 and 0.007188 and -0.01399 and -0.02335
CPN 267–induced G protein activation of NMU2 (NMU2; Log [CPN 267] M -6): -0.02292 and -0.01831 and -0.0188 and -0.02168 and -0.03547 and -0.01761 and -0.003911 and -0.0252 and -0.02032
CPN 267–induced G protein activation of NMU2 (NMU2; Log [CPN 267] M -7): -0.006001 and -0.01343 and -0.0256 and -0.004694 and 0.01387 and -0.02539 and 0.01253 and -0.01403 and -0.001793
CPN 267–induced G protein activation of NMU2 (NMU2; Log [CPN 267] M -8): 0.003495 and -0.002501 and 0.007246 and 0.0002105 and -0.01007 and 0.01037 and -0.008456 and 0.001798
CPN 267–induced G protein activation of NMU2 (NMU2; Log [CPN 267] M -9): -0.002278 and 0.02355 and -0.003166 and -0.00428 and 0.01286 and -0.01712 and 0.00907 and -0.02718 and 0.02569
CPN 267–induced G protein activation of NMU2 (NMU2; Log [CPN 267] M -10): 0.01327 and -0.00722 and 0.003132 and -0.01489 and -0.004805 and 0.01086 and 0.01655 and -0.01176
CPN 267–induced G protein activation of NMU2 (NMU2; Log [CPN 267] M -11): 0.01288 and -0.01868 and -0.005647 and 0.02201 and -0.02258 and -0.03283 and 0 (3×)
CPN 267–induced G protein activation of NMU2 (NMU2; Log [CPN 267] M -12): 0.001564 and -0.001695 and 0.03559 and -0.01351 and 0.02492 and 0
selectivity over NMU2 (NMU1; NMU1 over NMU2): 1000 fold
EC50 (NMU1; agonistic activity for NMU1): 0.25 nM
CPN 267–induced G protein activation of NMU2 (NMU2 N306Q; Log [CPN 267] M -5, single replicates): -0.01962 and -0.06076 and -0.0468 and -0.06887

Reference: article PMC9794833, “Ligand recognition and activation of neuromedin U receptor 2” (Nature Communications, 2022)
